Data taken from US8389544B2, “Isoquinolone compounds as subtype-selective agonists for melatonin receptors MT1 and MT2” (The Hong Kong University of Science and Technology, priority 2007, dated 2013).
Like-named read-outs stand apart in the source and are kept apart here.

Experiments:
[1] = molecular target: MT1 receptor (Homo sapiens, UniProt P48039); experiment: FLIPR Ca2+ mobilization assay, MT1; format: cell-based; design: expressed in transfected cells; host or cells: COS-7 (monkey kidney fibroblast); conditions: for % Response of 2-IMT: MT1, relative to 2-IMT response
Chain of MT1 receptor (P48039 whole entry): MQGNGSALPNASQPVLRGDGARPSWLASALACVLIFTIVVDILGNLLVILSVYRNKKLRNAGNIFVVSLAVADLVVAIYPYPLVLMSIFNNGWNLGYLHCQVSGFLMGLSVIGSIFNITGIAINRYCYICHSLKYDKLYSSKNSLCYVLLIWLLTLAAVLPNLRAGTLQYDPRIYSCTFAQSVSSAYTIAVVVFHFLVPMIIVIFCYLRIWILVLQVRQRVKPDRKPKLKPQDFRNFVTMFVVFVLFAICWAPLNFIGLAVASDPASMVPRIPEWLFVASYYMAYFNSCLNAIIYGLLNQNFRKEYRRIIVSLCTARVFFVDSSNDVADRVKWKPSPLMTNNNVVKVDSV
Experimental: (§1) 1. FLIPR Ca^2+ Mobilization Assay
(§2) This assay indicates the ability of the novel compounds to activate MT1 and MT2 receptors by measuring downstream events of the activated receptor, in this case intracellular calcium mobilization.
(§3) 1. Intracellular Ca^2+ Mobilization Assay Using Fluorometric Imaging Plate Reader (FLIPR®)
(§4) An intracellular calcium mobilization assay was performed to screen the isoquinolone compounds against the two melatonin receptor subtypes, MT1 and MT2 on the fluorometric imaging plate reader (FLIPR®). In order to facilitate the screening process in a high-throughput manner, chimeric G proteins with the ability to couple to a range of GPCR as well as activate intracellular Ca^2+ were employed. The melatonin receptor subtype (either MT1 or MT2) was co-expressed with the G-protein chimeras in COS-7 (monkey kidney fibroblast) cells. During the assay, cells were exposed to the novel isoquinolone compounds and the corresponding change in fluorescence was measured. Both single point and dose-dependant assays were performed for each isoquinolone compound and based on the latter a dose response curve was generated and the corresponding EC50 for each receptor subtype determined.
(§5) Specifically, COS-7 cells were seeded at a density of 20,000 cells/well into 96-well plates designed for FLIPR assays, using Opti-MEM with 10% FCS at a volume of 100 μl/well. Transfection was carried out using Lipofectamine 2000® reagent. In each well, 0.2 μg of the GPCR and G protein cDNA were diluted with 25 μl of Opti-MEM and 0.2 μl of Lipofectamine 2000® was diluted with another 25 μl of Opti-MEM. They were added to appropriate wells after the two components were mixed for 20 min.
(§6) After 48 hours of incubation post-transfection, 50 μl of the transfection medium was removed from each well followed by the labelling of transfected cells with 100 μl of 2 μM Fluo-4 in calcium containing HBSS (Hank's balanced salt solution) with 20 mM HEPES (N-[2-hydroxyethyl]piperazine—N′-[2-ethanesulfonic acid]; pH 7.5) and 2.5 mM probenecid (anion exchanger inhibitor, freshly prepared) for 1 hour at 37° C. 70 μl of 3× drugs (isoquinolinone compounds encompassing the invention) were prepared and aliquoted into the corresponding wells in the V-well drug plate. Changes in fluorescence were detected in the FLIPR 96 with an excitation wavelength of 488 nm. The background fluorescence was adjusted to the range of 8,000 to 12,000 units by altering the laser power and exposure time (typically 0.4 W and 0.4 sec, respectively) for the FLIPR setup. 50 μl of each agonist solution was added to the corresponding wells and the fluorescent emission (between 510 and 560 nm) was monitored for 3 min. Results were expressed as change in fluorescent intensity units (FIU). Concentration-response curves were generated by determining the maximal change in FIU of each data set. Numerical analysis of the statistics and EC50 (median effective concentration) values were performed on GraphPad Prism version 3.03.
(§7) Then the intracellular Ca^2+ mobilization assays using the Fluorometric Imaging Plate Reader (FLIPR®) were performed as described above.

[2] = molecular target: T1, MT2 receptor (Homo sapiens, UniProt P49286); experiment: FLIPR Ca2+ mobilization assay, MT2; format: cell-based; design: expressed in transfected cells; host or cells: COS-7 (monkey kidney fibroblast); conditions: for Emax: read-out: % Response of 2-IMT; for agonist character / receptor subtype selectivity in words: FLIPR results, MT1 versus MT2; for % Response of 2-IMT: MT2, relative to 2-IMT response
T1 sequence (P49286 1-362): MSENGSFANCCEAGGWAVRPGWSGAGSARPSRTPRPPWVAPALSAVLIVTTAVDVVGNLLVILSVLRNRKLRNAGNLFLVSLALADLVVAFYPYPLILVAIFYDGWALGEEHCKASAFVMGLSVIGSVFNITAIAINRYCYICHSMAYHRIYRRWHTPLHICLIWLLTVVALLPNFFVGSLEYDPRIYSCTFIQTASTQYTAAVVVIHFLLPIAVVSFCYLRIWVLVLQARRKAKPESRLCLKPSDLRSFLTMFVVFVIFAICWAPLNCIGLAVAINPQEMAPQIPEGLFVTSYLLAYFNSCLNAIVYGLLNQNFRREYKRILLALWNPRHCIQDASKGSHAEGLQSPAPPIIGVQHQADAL
Experimental: as §1, §2, §3, §4, §5, §6, §7

[3] = Table 1, MT1 in COS-7 cells with chimeric G protein, log value, negative, NSR = no significant response, read-out: Log(EC50) ± SEM (converted)
[4] = Table 1, MT2 in COS-7 cells with chimeric G protein, log value, negative, NSR = no significant response
[5] = Table 1, MT2 in COS-7 cells with chimeric G protein, log value, negative, NSR = no significant response, read-out: Log(EC50) ± SEM (converted)
[6] = Table 1, MT1 in COS-7 cells with chimeric G protein, log value, negative, NSR = no significant response

| Structure (SMILES) | % Response of 2-IMT ([1]; Table 1) [%] | Log(EC50) ± SEM [2, 4] | EC50 [2, 5] [nM] | Emax [2] [%] | Log(EC50) ± SEM [1, 6] | other results |
| --- | --- | --- | --- | --- | --- | --- |
| COc1cc2c(=O)n(C)ccc2cc1O [IS001, 6-Hydroxyl-7-methoxyl-2-methyl-1(2H)-isoquinolone] | 71.9 | NSR | – | – | – | EC50 [1, 3]: 1580 nM |
| COc1cc2ccn(C)c(=O)c2cc1O [IS002, 7-hydroxyl-6-methoxyl-2-methyl-1(2H)-isoquinolone] | 31.7 | – | 871 | 47 | – | EC50 [1, 3]: 1740 nM |
| COc1cc2ccn(C)c(=O)c2cc1OCc1ccccc1 [IS003] | – | NSR | – | – | NSR | – |
| COc1ccc2c(=O)n(C)ccc2c1OCc1ccccc1 [IS005] | 30.5 | – | – | 62.9 | – | activity / activation at MT1 compared to 2-IMT ([1]; running text b158, b160): 31%; EC50 ([1]; running text b158, read-out: EC50 MT1): 5.81 nM; activity / efficacy at MT2 compared to 2-IMT [2]: 63%; agonist character / receptor subtype selectivity in words [2]: partial agonist; EC50 ([2]; read-out: EC50 MT2): 48.5 nM |
| C=CCOc1c(OC)ccc2c(=O)n(C)ccc12 [IS007] | – | – | 3.47 | 49.1 | NSR | EC50 ([2]; read-out: EC50 MT2): 3.51 nM |
| COc1ccc2c(=O)n(C)ccc2c1OCCCc1ccccc1 [IS008] | – | – | 562 | 57.6 | NSR | agonist character / receptor subtype selectivity in words [2]: activated MT2 only |
| COc1ccc2c(=O)n(C)ccc2c1OCc1ccc(Br)cc1 [IS009] | – | – | 123 | 37.4 | NSR | agonist character / receptor subtype selectivity in words [2]: activated MT2 only |
| COc1ccc(C(=O)COc2c(OC)ccc3c(=O)n(C)ccc23)cc1 [IS010] | – | −6.35 ± 0.06 | – | – | NSR | % Response of 2-IMT ([2]; Table 1): 53.0% |
| COc1cc2ccn(C)c(=O)c2cc1OCCCc1ccccc1 [IS013] | 75.0 | −6.00 ± 0.01 | – | – | −5.22 ± 1.28 | % Response of 2-IMT ([2]; Table 1): 101.9% |

Now from value to compound, other results behind:

| % Response of 2-IMT ([1]; Table 1) [%] | Log(EC50) ± SEM [2, 4] | EC50 [2, 5] [nM] | Emax [2] [%] | Log(EC50) ± SEM [1, 6] | Structure (SMILES) | other results |
| --- | --- | --- | --- | --- | --- | --- |
| 65.3 | – | 2750 | 145 | – | COc1cc2c(=O)n(C)ccc2cc1OCc1ccccc1 [IS016] | EC50 [1, 3]: 1350 nM |
| – | – | 107 | 107 | NSR | COc1cc2c(=O)n(C)ccc2cc1OCCCc1ccccc1 [IS017] | – |
| 67.5 | −5.52 | – | – | −5.98 ± 0.04 | COc1ccc(O)c2c(=O)n(C)ccc12 [IS030] | % Response of 2-IMT ([2]; Table 1): 39.4% |
| – | – | 525 | 42.1 | NSR | Cn1ccc2ccc(O)c(O)c2c1=O [IS037] | – |
| – | – | 6.17 | 44.7 | NSR | COc1cc2ccn(C)c(=O)c2cc1OCCCCCl [IS098] | – |
| – | – | 603 | 65.8 | NSR | COc1cc2ccn(C)c(=O)c2cc1OCCCI [IS101, 7-(3-iodopropyloxyl)-6-methoxyl-2-methyl-1(2H)-isoquinolone] | – |
| – | −5.57 ± 0.75 | – | – | NSR | COc1ccc2c(=O)n(C)ccc2c1OCc1ccc(C(C)(C)C)cc1 [IS532] | % Response of 2-IMT ([2]; Table 1): 22.3% |
